Usually pIC50 stands for the IC50 on a negative log10 scale, so that one unit is a factor of ten.

The values below come from publication PMC5615432, “HM71224, a selective Bruton’s tyrosine kinase inhibitor, attenuates the development of murine lupus” (Arthritis Research & Therapy, 2017).

pIC50: −log10 of the molar value.

This assay has as its target Bruton's tyrosine kinase (BTK) (Homo sapiens, UniProt Q06187). Put plainly: immunoblot of BTK Y223 autophosphorylation in anti-IgM-stimulated Ramos cells. Type of assay: cell-based. In general terms: In western blotting, separated proteins are transferred to a membrane and probed.

Chain of Bruton's tyrosine kinase (BTK) (Q06187 2-659): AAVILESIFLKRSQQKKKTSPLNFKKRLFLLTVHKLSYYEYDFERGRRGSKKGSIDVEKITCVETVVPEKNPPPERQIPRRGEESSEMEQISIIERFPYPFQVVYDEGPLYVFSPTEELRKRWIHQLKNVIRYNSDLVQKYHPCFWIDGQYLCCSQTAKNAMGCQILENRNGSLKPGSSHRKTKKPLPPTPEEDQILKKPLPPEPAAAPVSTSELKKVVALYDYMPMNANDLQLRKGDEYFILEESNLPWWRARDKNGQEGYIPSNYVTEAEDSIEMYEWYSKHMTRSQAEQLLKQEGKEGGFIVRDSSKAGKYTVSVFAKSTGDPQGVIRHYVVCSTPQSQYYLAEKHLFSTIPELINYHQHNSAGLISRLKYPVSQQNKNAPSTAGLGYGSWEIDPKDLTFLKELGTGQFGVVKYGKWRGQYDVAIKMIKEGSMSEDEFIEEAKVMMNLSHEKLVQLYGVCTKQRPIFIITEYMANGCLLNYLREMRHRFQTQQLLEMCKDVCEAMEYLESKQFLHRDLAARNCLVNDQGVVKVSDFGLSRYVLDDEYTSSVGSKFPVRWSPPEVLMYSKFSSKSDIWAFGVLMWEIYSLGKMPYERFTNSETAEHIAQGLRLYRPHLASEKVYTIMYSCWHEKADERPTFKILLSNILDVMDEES

`C=CC(=O)Nc1cccc(Oc2nc(Nc3ccc(N4CCN(C)CC4)cc3)nc3ccoc23)c1` [HM71224] showed a pIC50 of more than 8.00.
